PubChem BioAssay AID330 (DTP/NCI, 2004)
Several values for one entry are separate records, joined by “and”; a condition that tells them apart may be missing. Equal entries are not always repeated. Inconclusive results and toxic doses are left out. How the source made its calls: active means survival T/C of 150% or more; inactive means T/C below 125% in these data.

System: P388 leukemia ip, CD2F1 mice, survival T/C
Experiment: NCI In Vivo Anticancer Drug Screen. Data for tumor model P388 Leukemia (intraperitoneal) in CD2F1 (CDF1) mice
Conditions: endpoint: median survival time, higher = longer survival
Procedure, shortened: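 Mice carrying the transplanted tumor received test compound or vehicle. Survival was recorded in each group, and the value is the treated-group measurement divided by that of the vehicle-treated control group.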

[1] = dose: 25.0 mg/kg/injection, schedule: Q01DX009 (ip), vehicle: saline with Tween-80
[2] = dose: 50.0 mg/kg/injection, schedule: Q01DX009 (ip), vehicle: saline with Tween-80
[3] = dose: 100.0 mg/kg/injection, schedule: Q01DX009 (ip), vehicle: saline with Tween-80
[4] = dose: 200.0 mg/kg/injection, schedule: Q01DX009 (ip), vehicle: saline with Tween-80
[5] = dose: 400.0 mg/kg/injection, schedule: Q01DX009 (ip), vehicle: saline with Tween-80
[6] = dose: 60.0 mg/kg/injection, schedule: Q01DX005 (ip), vehicle: saline with Tween-80
[7] = dose: 120.0 mg/kg/injection, schedule: Q01DX005 (ip), vehicle: saline with Tween-80
[8] = dose: 240.0 mg/kg/injection, schedule: Q01DX005 (ip), vehicle: saline with Tween-80
[9] = dose: 50.0 mg/kg/injection, schedule: Q01DX009 (ip), vehicle: Klucel (hydroxypropylcellulose) (HPC)
[10] = dose: 100.0 mg/kg/injection, schedule: Q01DX009 (ip), vehicle: Klucel (hydroxypropylcellulose) (HPC)
[11] = dose: 200.0 mg/kg/injection, schedule: Q01DX009 (ip), vehicle: Klucel (hydroxypropylcellulose) (HPC)
[12] = dose: 100.0 mg/kg/injection, schedule: Q01DX001 (ip), vehicle: Klucel (hydroxypropylcellulose) (HPC)
[13] = dose: 200.0 mg/kg/injection, schedule: Q01DX001 (ip), vehicle: Klucel (hydroxypropylcellulose) (HPC)
[14] = dose: 400.0 mg/kg/injection, schedule: Q01DX001 (ip), vehicle: Klucel (hydroxypropylcellulose) (HPC)

Measured: T/C

C=C/[Se](=C(/C#N)C(=O)c1ccccc1)c1ccccc1 (stereo not given)
inactive: dose: 6.25 mg/kg/injection, schedule: Q01DX009 (ip), vehicle: saline 99 % of control | dose: 12.5 mg/kg/injection, schedule: Q01DX009 (ip), vehicle: saline 99 % of control | dose: 25.0 mg/kg/injection, schedule: Q01DX009 (ip), vehicle: saline 89 % of control

c1ccc2c(c1)CC/C2=N\OCC1CO1 (stereo not given)
inactive: dose: 100.0 mg/kg/injection, schedule: Q04DX002 (ip), vehicle: saline with Tween-80 102 % of control | dose: 200.0 mg/kg/injection, schedule: Q04DX002 (ip), vehicle: saline with Tween-80 104 % of control | dose: 400.0 mg/kg/injection, schedule: Q04DX002 (ip), vehicle: saline with Tween-80 106 % of control

C1=NC(c2ccccc2)C(/C=C/c2ccccc2)N=C1c1ccccc1 (stereo not given)
inactive: dose: 100.0 mg/kg/injection, schedule: Q01DX001 (ip), vehicle: saline 96 % of control | dose: 200.0 mg/kg/injection, schedule: Q01DX001 (ip), vehicle: saline 93 % of control | dose: 400.0 mg/kg/injection, schedule: Q01DX001 (ip), vehicle: saline 86 % of control

CS(=O)(=O)CS(=O)CS(=O)CS(=O)CC(NC(=O)CCC(N)C(=O)O)C(=O)O (stereo not given)
inactive: dose: 12.5 mg/kg/injection, schedule: Q01DX005 (ip), vehicle: saline 96 % of control | dose: 25.0 mg/kg/injection, schedule: Q01DX005 (ip), vehicle: saline 98 % of control | dose: 50.0 mg/kg/injection, schedule: Q01DX005 (ip), vehicle: saline 97 % of control | dose: 100.0 mg/kg/injection, schedule: Q01DX005 (ip), vehicle: suspension in saline 108 % of control

O=C1CCS(=O)(=O)CC1
inactive: [1] 108 % of control | [2] 103 % of control and 107 % of control | [3] 114 % of control and 120 % of control | [4] 107 % of control and 123 % of control | [5] 113 % of control and 120 % of control | dose: 600.0 mg/kg/injection, schedule: Q01DX009 (ip), vehicle: saline with Tween-80 123 % of control

CC(C)(C)/[N+]([O-])=C/C1(C2(/C=[N+](\[O-])C(C)(C)C)Cc3ccccc3C2=O)Cc2ccccc2C1=O (stereo not given)
inactive: [6] 101 % of control | [7] 105 % of control | [8] 103 % of control

CN=S(=O)(c1ccccc1)C1(C)CC(C)=C(C)CS1=O (stereo not given)
inactive: dose: 60.0 mg/kg/injection, schedule: Q01DX005 (ip), vehicle: saline 94 % of control | dose: 120.0 mg/kg/injection, schedule: Q01DX005 (ip), vehicle: saline 97 % of control | dose: 240.0 mg/kg/injection, schedule: Q01DX005 (ip), vehicle: saline 103 % of control

CCCSc1nc2ccc(N=Cc3ccccc3O)cc2s1
inactive: [9] 97 % of control | [10] 90 % of control | [11] 90 % of control

NC(=S)c1ccc(N=Cc2ccco2)cc1
inactive: [12] 102 % of control | [13] 104 % of control | [14] 105 % of control

c1ccc(C2C(c3ccccn3)C(c3ccccn3)C2c2ccccn2)nc1 (stereo not given)
inactive: [12] 95 % of control | [13] 94 % of control | [14] 95 % of control

O=Cc1cc2ccc3ccccc3c2[nH]1
inactive: dose: 200.0 mg/kg/injection, schedule: Q01DX001 (ip), vehicle: saline with Tween-80 90 % of control

CCOC(=O)CCC1(C(=O)OC)C(=O)CCCCC/C=C/1C(=O)OC (stereo not given)
inactive: [3] 113 % of control | [4] 104 % of control | [5] 104 % of control

Oc1ccc(C2c3ccccc3Oc3ccccc32)cc1
inactive: [2] 101 % of control | [3] 111 % of control | [4] 118 % of control

CCCOC(=O)Nc1ccc2nc(N(C)C)sc2c1
inactive: dose: 50.0 mg/kg/injection, schedule: Q01DX009 (ip), vehicle: suspension in saline 99 % of control | dose: 100.0 mg/kg/injection, schedule: Q01DX009 (ip), vehicle: suspension in saline 97 % of control | dose: 200.0 mg/kg/injection, schedule: Q01DX009 (ip), vehicle: suspension in saline 102 % of control

[Cu+].[NH-]CCCN=Cc1ccccc1O
inactive: dose: 25.0 mg/kg/injection, schedule: Q01DX001 (ip), vehicle: saline sonified 95 % of control | dose: 50.0 mg/kg/injection, schedule: Q01DX001 (ip), vehicle: saline sonified 105 % of control

Cc1ccc(S(=O)(=O)NC(=O)c2ccccc2)cc1
inactive: [3] 100 % of control | [4] 100 % of control | [5] 91 % of control

CN(Cc1ccccc1)C(=O)Nc1c(Cl)cccc1Cl
inactive: [6] 103 % of control | [7] 99 % of control | [8] 95 % of control

CCCCCCCCCCCCCCCCC1(C)c2ccccc2N(C)C12C=Cc1cc([N+](=O)[O-])ccc1O2 (stereo not given)
inactive: dose: 100.0 mg/kg/injection, schedule: Q04DX003 (ip), vehicle: saline with Tween-80 103 % of control | dose: 200.0 mg/kg/injection, schedule: Q04DX003 (ip), vehicle: saline with Tween-80 100 % of control | dose: 400.0 mg/kg/injection, schedule: Q04DX003 (ip), vehicle: saline with Tween-80 100 % of control

Cc1[nH]c2ccc(N(C)C)cc2c(=O)c1C
inactive: dose: 12.5 mg/kg/injection, schedule: Q01DX009 (ip), vehicle: Klucel (hydroxypropylcellulose) (HPC) 96 % of control | dose: 25.0 mg/kg/injection, schedule: Q01DX009 (ip), vehicle: Klucel (hydroxypropylcellulose) (HPC) 104 % of control and 107 % of control | [9] 100 % of control and 103 % of control and 123 % of control | [10] 102 % of control and 103 % of control and 107 % of control | [11] 112 % of control

CCc1nc(N)nc(N)c1-c1ccc2nn(-c3ccccc3)[n+]([O-])c2c1
inactive: dose: 50.0 mg/kg/injection, schedule: Q01DX005 (ip), vehicle: Klucel (hydroxypropylcellulose) (HPC) 108 % of control | dose: 200.0 mg/kg/injection, schedule: Q01DX005 (ip), vehicle: Klucel (hydroxypropylcellulose) (HPC) 87 % of control

O=c1/c(=C/c2ccc(/C=c3\sc4nc5ccccc5n4c3=O)cc2)sc2nc3ccccc3n12
inactive: dose: 50.0 mg/kg/injection, schedule: Q01DX005 (ip), vehicle: saline with Tween-80 92 % of control | dose: 100.0 mg/kg/injection, schedule: Q01DX005 (ip), vehicle: saline with Tween-80 90 % of control | dose: 200.0 mg/kg/injection, schedule: Q01DX005 (ip), vehicle: saline with Tween-80 95 % of control

Cc1cc2nc(/N=C/c3nc(O)c(C)[nH]3)[nH]c2cc1C
inactive: dose: 30.0 mg/kg/injection, schedule: Q01DX005 (ip), vehicle: Klucel (hydroxypropylcellulose) (HPC) 103 % of control | dose: 60.0 mg/kg/injection, schedule: Q01DX005 (ip), vehicle: Klucel (hydroxypropylcellulose) (HPC) 98 % of control | dose: 120.0 mg/kg/injection, schedule: Q01DX005 (ip), vehicle: Klucel (hydroxypropylcellulose) (HPC) 99 % of control | dose: 240.0 mg/kg/injection, schedule: Q01DX005 (ip), vehicle: Klucel (hydroxypropylcellulose) (HPC) 104 % of control

CCCCCCCCCCCSSCCCCCCCCCCC
inactive: dose: 100.0 mg/kg/injection, schedule: Q01DX009 (ip), vehicle: other 100 % of control | dose: 100.0 mg/kg/injection, schedule: Q04DX003 (ip), vehicle: other 109 % of control | dose: 200.0 mg/kg/injection, schedule: Q01DX009 (ip), vehicle: other 109 % of control | dose: 200.0 mg/kg/injection, schedule: Q04DX003 (ip), vehicle: other 104 % of control | dose: 400.0 mg/kg/injection, schedule: Q01DX009 (ip), vehicle: other 104 % of control | dose: 400.0 mg/kg/injection, schedule: Q04DX003 (ip), vehicle: other 100 % of control

CCOC(=O)c1cc(N(CCCl)CCCl)ccc1OC(=O)CC
inactive: dose: 50.0 mg/kg/injection, schedule: Q04DX003 (ip), vehicle: Klucel (hydroxypropylcellulose) (HPC) 100 % of control | dose: 100.0 mg/kg/injection, schedule: Q04DX003 (ip), vehicle: Klucel (hydroxypropylcellulose) (HPC) 100 % of control | dose: 200.0 mg/kg/injection, schedule: Q04DX003 (ip), vehicle: Klucel (hydroxypropylcellulose) (HPC) 97 % of control

CC1NC(=O)OC12CCCCC2 (stereo not given)
inactive: [1] 93 % of control | [2] 100 % of control
